# Assay results taken from ChEMBL document CHEMBL2157953, “Identification of aminopyridazine-derived antineuroinflammatory agents effective in an Alzheimer's mouse model” (ACS Med Chem Lett, 2012).
# Calls of active or inactive are those of the source. No cut-off for these calls is given here.
# Key:
# BV-2 = assay: Antineuroinflammatory activity in mouse BV2 cells assessed as inhibition of LPS-induced IL-1beta production after 16 hrs by ELISA; assay type: functional, cell-based; details: BV-2, 16 h
# Mus musculus [1] = assay: Antialzheimer activity in Kunming mouse assessed as reversal of amyloid beta (1 to 42)-induced decrease of swimming percentage of path length at 0.656 mg/kg, po qd measured on day 13 by morris water maze test; assay type: functional, organism-based; set-up: dose 0.656 mg/kg
# Mus musculus [2] = assay: Antialzheimer activity in Kunming mouse assessed as reversal of amyloid beta (1 to 42)-induced impairments in spartial recognition memory at 0.65 mg/kg, po qd measured on day 3 and 4 by morris water maze test; assay type: functional, organism-based; set-up: dose 0.65 mg/kg
# Mus musculus [3] = assay: Antialzheimer activity in Kunming mouse assessed as reversal of amyloid beta (1 to 42)-induced decrease of swimming time spent in target quadrant at 0.65 mg/kg, po qd measured on day 13 by morris water maze test; assay type: functional, organism-based; set-up: dose 0.65 mg/kg
# Mus musculus [4] = assay: Antialzheimer activity in Kunming mouse assessed as reversal of amyloid beta (1 to 42)-induced impairments in spartial recognition memory at 2.5 mg/kg, po qd measured on day 3 and 4 by morris water maze test; assay type: functional, organism-based; set-up: dose 2.5 mg/kg
# [5] = Tmax in rat brain at 2.5 mg/kg, po; assay type: ADME, organism-based; set-up: dose 2.5 mg/kg, route oral
# [6] = Oral bioavailability in rat at 2.5 mg/kg; assay type: ADME, organism-based; details: in vivo
# Mus musculus [7] = assay: Antialzheimer activity in Kunming mouse assessed as reversal of amyloid beta (1 to 42)-induced decrease of swimming time spent in target quadrant at 2.5 mg/kg, po qd measured on day 13 by morris water maze test; assay type: functional, organism-based; set-up: dose 2.5 mg/kg
# Mus musculus [8] = assay: Antialzheimer activity in Kunming mouse assessed as reversal of amyloid beta (1 to 42)-induced decrease of swimming percentage of path length at 2.5 mg/kg, po qd measured on day 13 by morris water maze test; assay type: functional, organism-based; set-up: dose 2.5 mg/kg
SMILES,IC50 (BV-2),other results
Cc1ccc(-c2cc(C)c(N3CCN(c4ncccn4)CC3)nn2)cc1,17.2 µM,–
Cc1cc(-c2ccccc2)nnc1N1CCN(c2ncccn2)CC1,11.4 µM,–
Cc1cc(C(C)C)nnc1N1CCN(c2ncccn2)CC1,> 100 µM,–
COc1cc2c(cc1OC)C(=O)C(CC1CCN(Cc3ccccc3)CC1)C2 (configuration not stated),–,Activity (Mus musculus [1]): Active; Activity (Mus musculus [2]): Active; Activity (Mus musculus [3]): Active
Cc1cc(-c2ccnc3ccccc23)nnc1N1CCN(c2ncccn2)CC1,66.5 µM,–
Cc1cc(-c2ccsc2)nnc1N1CCN(c2ncccn2)CC1,2.4 µM,Activity (Mus musculus [4]): Active; Tmax [5]: 19.8 min; bioavailability [6]: 17.4%; Activity (Mus musculus [7]): Active; Activity (Mus musculus [8]): Active
Cc1cc(-c2cc3ccccc3s2)nnc1N1CCN(c2ncccn2)CC1,24.9 µM,–
Cc1cc(-c2cccnc2)nnc1N1CCN(c2ncccn2)CC1,> 100 µM,–
Cc1cc(-c2ccc3[nH]ccc3c2)nnc1N1CCN(c2ncccn2)CC1,85.1 µM,–
Cc1ccnnc1N1CCN(c2ncccn2)CC1,> 100 µM,–
Cc1cc(Cl)nnc1N1CCN(c2ncccn2)CC1,> 100 µM,–
Cc1cc(-c2cccc(F)c2)nnc1N1CCN(c2ncccn2)CC1,33.5 µM,–
COc1ccc(-c2cc(C)c(N3CCN(c4ncccn4)CC3)nn2)cc1,5.2 µM,–
Cc1cc(C)c(N2CCN(c3ncccn3)CC2)nn1,> 100 µM,–
Cc1cc(-c2ccc(F)cc2)nnc1N1CCN(c2ncccn2)CC1,76.3 µM,–
Cc1cc(-c2cncnc2)nnc1N1CCN(c2ncccn2)CC1,> 100 µM,–
Cc1cc(-c2ccc(C(F)(F)F)cc2)nnc1N1CCN(c2ncccn2)CC1,37.4 µM,–
Cc1cc(-c2ccncc2)nnc1N1CCN(c2ncccn2)CC1,> 100 µM,–
COc1cccc(-c2cc(C)c(N3CCN(c4ncccn4)CC3)nn2)c1,2.6 µM,–
COc1ncc(-c2cc(C)c(N3CCN(c4ncccn4)CC3)nn2)c(OC)n1,> 100 µM,–
